T1 relaxation data for one compound are collected here from patent publication US20100040544A1, “METHOD FOR MANAGING PATIENTS WITH CANCER” (priority 2006, published 2010).

The data set can be described thus: T1 relaxation in human full blood. The following applies: in human full blood at 37° C. In kind it is physicochemical.

As to `CC(=O)[13C](=O)O` [^13C1-pyruvate], the T1 relaxation result is given as “about 42 s”.
